PubChem BioAssay (NCI)
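Tested at 5 concentrations; 48 h exposure; 96-well plates; endpoints linearly interpolated, else capped at highest concentration. The concentration for full growth arrest is given as TGI.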

Columns and labels:
Experiment in all cases: NCI anticancer screen, dose series, 48 h
SK-OV-3 ovarian = system: SK-OV-3 ovarian
MDA-N = system: MDA-N
BT-549 breast = system: BT-549 breast
EKVX NSCLC = system: EKVX NSCLC
PC-3 prostate = system: PC-3 prostate
MOLT-4 leukemia = system: MOLT-4 leukemia
SK-MEL-2 melanoma = system: SK-MEL-2 melanoma
RXF 393 renal = system: RXF 393 renal
CAKI-1 renal = system: CAKI-1 renal
SK-MEL-5 melanoma = system: SK-MEL-5 melanoma
SF-295 CNS = system: SF-295 CNS
HCT-116 colon = system: HCT-116 colon
NCI/ADR-RES ovarian = system: NCI/ADR-RES ovarian
SNB-75 CNS = system: SNB-75 CNS
NCI-H522 lung = system: NCI-H522 lung
ACHN renal = system: ACHN renal
HL-60(TB) leukemia = system: HL-60(TB) leukemia
LOX IMVI melanoma = system: LOX IMVI melanoma
M14 melanoma = system: M14 melanoma
HCT-15 colon = system: HCT-15 colon
SF-268 CNS = system: SF-268 CNS
OVCAR-5 ovarian = system: OVCAR-5 ovarian
T-47D breast = system: T-47D breast
HS 578T breast = system: HS 578T breast
IGROV1 ovarian = system: IGROV1 ovarian
A549 NSCLC = system: A549 NSCLC
A498 renal = system: A498 renal
SW-620 colon = system: SW-620 colon
NCI-H23 lung = system: NCI-H23 lung
OVCAR-8 ovarian = system: OVCAR-8 ovarian
TK-10 renal = system: TK-10 renal
KM12 colon = system: KM12 colon
OVCAR-3 ovarian = system: OVCAR-3 ovarian
786-0 renal = system: 786-0 renal
UO-31 renal = system: UO-31 renal
MDA-MB-435 = system: MDA-MB-435
RPMI-8226 leukemia = system: RPMI-8226 leukemia
MCF7 breast = system: MCF7 breast
MDA-MB-231 breast = system: MDA-MB-231 breast
K-562 leukemia = system: K-562 leukemia
MALME-3M melanoma = system: MALME-3M melanoma
U251 CNS = system: U251 CNS
SK-MEL-28 melanoma = system: SK-MEL-28 melanoma
NCI-H226 lung = system: NCI-H226 lung
HOP-62 NSCLC = system: HOP-62 NSCLC
SN12C renal = system: SN12C renal
SNB-19 CNS = system: SNB-19 CNS
UACC-62 melanoma = system: UACC-62 melanoma
COLO 205 colon = system: COLO 205 colon
HT29 colon = system: HT29 colon
HOP-92 NSCLC = system: HOP-92 NSCLC
OVCAR-4 ovarian = system: OVCAR-4 ovarian
DU-145 prostate = system: DU-145 prostate
SR leukemia = system: SR leukemia
NCI-H460 lung = system: NCI-H460 lung
SF-539 CNS = system: SF-539 CNS
HCC-2998 colon = system: HCC-2998 colon
CCRF-CEM leukemia = system: CCRF-CEM leukemia
UACC-257 melanoma = system: UACC-257 melanoma

Q: How did the TGI (SK-OV-3 ovarian) turn out when `O=C(O)CC(Sc1ccccc1)c1ccccc1` (stereo not drawn) was run?
A: > 100 µM

Q: And the TGI (MDA-N)?
A: > 100 µM

Q: What about the TGI (BT-549 breast) of the same compound?
A: > 100 µM

Q: And the TGI (EKVX NSCLC)?
A: > 100 µM

Q: And the TGI (PC-3 prostate)?
A: > 100 µM

Q: What about the TGI (MOLT-4 leukemia) of the same compound?
A: > 100 µM

Q: And the TGI (SK-MEL-2 melanoma)?
A: > 100 µM

Q: And the TGI (RXF 393 renal)?
A: > 100 µM

Q: What about the TGI (CAKI-1 renal) of the same compound?
A: > 100 µM

Q: And the TGI (SK-MEL-5 melanoma)?
A: > 100 µM

Q: And the TGI (SF-295 CNS)?
A: > 100 µM

Q: What about the TGI (HCT-116 colon) of the same compound?
A: > 100 µM

Q: What about the TGI (NCI/ADR-RES ovarian) of the same compound?
A: > 100 µM

Q: And the TGI (SNB-75 CNS)?
A: > 100 µM

Q: What about the TGI (NCI-H522 lung) of the same compound?
A: > 100 µM

Q: What about the TGI (ACHN renal) of the same compound?
A: > 100 µM

Q: And the TGI (HL-60(TB) leukemia)?
A: > 100 µM

Q: What about the TGI (LOX IMVI melanoma) of the same compound?
A: > 100 µM

Q: What about the TGI (M14 melanoma) of the same compound?
A: > 100 µM

Q: And the TGI (HCT-15 colon)?
A: > 100 µM

Q: And the TGI (SF-268 CNS)?
A: > 100 µM

Q: And the TGI (OVCAR-5 ovarian)?
A: > 100 µM

Q: And the TGI (T-47D breast)?
A: > 100 µM

Q: What about the TGI (HS 578T breast) of the same compound?
A: > 100 µM

Q: And the TGI (IGROV1 ovarian)?
A: > 100 µM

Q: And the TGI (A549 NSCLC)?
A: > 100 µM

Q: What about the TGI (A498 renal) of the same compound?
A: > 100 µM

Q: What about the TGI (SW-620 colon) of the same compound?
A: > 100 µM

Q: What about the TGI (NCI-H23 lung) of the same compound?
A: > 100 µM

Q: What about the TGI (OVCAR-8 ovarian) of the same compound?
A: > 100 µM

Q: What about the TGI (TK-10 renal) of the same compound?
A: > 100 µM

Q: What about the TGI (KM12 colon) of the same compound?
A: > 100 µM

Q: What about the TGI (OVCAR-3 ovarian) of the same compound?
A: > 100 µM

Q: And the TGI (786-0 renal)?
A: > 100 µM

Q: And the TGI (UO-31 renal)?
A: > 100 µM

Q: What about the TGI (MDA-MB-435) of the same compound?
A: > 100 µM

Q: What about the TGI (RPMI-8226 leukemia) of the same compound?
A: > 100 µM

Q: And the TGI (MCF7 breast)?
A: > 100 µM

Q: What about the TGI (MDA-MB-231 breast) of the same compound?
A: > 100 µM

Q: And the TGI (K-562 leukemia)?
A: > 100 µM

Q: And the TGI (MALME-3M melanoma)?
A: > 100 µM

Q: What about the TGI (U251 CNS) of the same compound?
A: > 100 µM

Q: What about the TGI (SK-MEL-28 melanoma) of the same compound?
A: > 100 µM

Q: What about the TGI (NCI-H226 lung) of the same compound?
A: > 100 µM

Q: And the TGI (HOP-62 NSCLC)?
A: > 100 µM

Q: What about the TGI (SN12C renal) of the same compound?
A: > 100 µM

Q: And the TGI (SNB-19 CNS)?
A: > 100 µM

Q: And the TGI (UACC-62 melanoma)?
A: > 100 µM

Q: What about the TGI (COLO 205 colon) of the same compound?
A: > 100 µM

Q: And the TGI (HT29 colon)?
A: > 100 µM

Q: What about the TGI (HOP-92 NSCLC) of the same compound?
A: > 100 µM

Q: And the TGI (OVCAR-4 ovarian)?
A: > 100 µM

Q: And the TGI (DU-145 prostate)?
A: > 100 µM

Q: How did the TGI (SK-OV-3 ovarian) turn out when `CC(=O)OC12c3ccccc3-c3ccccc3C1C1C(=O)OC(=O)C12` (stereo not drawn) was run?
A: > 10 µM

Q: And the TGI (MDA-N)?
A: > 10 µM

Q: And the TGI (EKVX NSCLC)?
A: > 10 µM

Q: What about the TGI (PC-3 prostate) of the same compound?
A: > 10 µM

Q: And the TGI (MOLT-4 leukemia)?
A: > 10 µM

Q: What about the TGI (SK-MEL-2 melanoma) of the same compound?
A: > 10 µM

Q: And the TGI (RXF 393 renal)?
A: > 10 µM

Q: And the TGI (CAKI-1 renal)?
A: > 10 µM

Q: And the TGI (SK-MEL-5 melanoma)?
A: > 10 µM

Q: And the TGI (SF-295 CNS)?
A: > 10 µM

Q: And the TGI (NCI/ADR-RES ovarian)?
A: > 10 µM

Q: What about the TGI (SNB-75 CNS) of the same compound?
A: > 10 µM

Q: What about the TGI (NCI-H522 lung) of the same compound?
A: > 10 µM

Q: And the TGI (ACHN renal)?
A: > 10 µM

Q: What about the TGI (HL-60(TB) leukemia) of the same compound?
A: > 10 µM

Q: What about the TGI (LOX IMVI melanoma) of the same compound?
A: > 10 µM

Q: What about the TGI (M14 melanoma) of the same compound?
A: > 10 µM

Q: And the TGI (HCT-15 colon)?
A: > 10 µM

Q: What about the TGI (SF-268 CNS) of the same compound?
A: > 10 µM

Q: What about the TGI (OVCAR-5 ovarian) of the same compound?
A: > 10 µM

Q: And the TGI (T-47D breast)?
A: > 10 µM

Q: And the TGI (HS 578T breast)?
A: > 10 µM

Q: What about the TGI (IGROV1 ovarian) of the same compound?
A: > 10 µM

Q: What about the TGI (A498 renal) of the same compound?
A: > 10 µM

Q: What about the TGI (SW-620 colon) of the same compound?
A: > 10 µM

Q: And the TGI (NCI-H23 lung)?
A: > 10 µM

Q: What about the TGI (OVCAR-8 ovarian) of the same compound?
A: > 10 µM

Q: And the TGI (TK-10 renal)?
A: > 10 µM

Q: What about the TGI (KM12 colon) of the same compound?
A: > 10 µM

Q: What about the TGI (OVCAR-3 ovarian) of the same compound?
A: > 10 µM

Q: What about the TGI (SR leukemia) of the same compound?
A: > 10 µM

Q: And the TGI (786-0 renal)?
A: > 10 µM

Q: What about the TGI (UO-31 renal) of the same compound?
A: > 10 µM

Q: And the TGI (MDA-MB-435)?
A: > 10 µM

Q: And the TGI (RPMI-8226 leukemia)?
A: > 10 µM

Q: What about the TGI (MCF7 breast) of the same compound?
A: > 10 µM

Q: What about the TGI (MDA-MB-231 breast) of the same compound?
A: > 10 µM

Q: What about the TGI (K-562 leukemia) of the same compound?
A: > 10 µM

Q: And the TGI (MALME-3M melanoma)?
A: > 10 µM

Q: What about the TGI (U251 CNS) of the same compound?
A: > 10 µM

Q: What about the TGI (SK-MEL-28 melanoma) of the same compound?
A: > 10 µM

Q: What about the TGI (NCI-H226 lung) of the same compound?
A: > 10 µM

Q: And the TGI (HOP-62 NSCLC)?
A: > 10 µM

Q: What about the TGI (NCI-H460 lung) of the same compound?
A: > 10 µM

Q: And the TGI (SN12C renal)?
A: > 10 µM

Q: And the TGI (SF-539 CNS)?
A: > 10 µM

Q: And the TGI (SNB-19 CNS)?
A: > 10 µM

Q: What about the TGI (COLO 205 colon) of the same compound?
A: > 10 µM

Q: And the TGI (HT29 colon)?
A: > 10 µM

Q: What about the TGI (HCC-2998 colon) of the same compound?
A: > 10 µM

Q: What about the TGI (CCRF-CEM leukemia) of the same compound?
A: > 10 µM

Q: What about the TGI (HOP-92 NSCLC) of the same compound?
A: > 10 µM

Q: What about the TGI (OVCAR-4 ovarian) of the same compound?
A: > 10 µM

Q: And the TGI (UACC-257 melanoma)?
A: > 10 µM

Q: And the TGI (DU-145 prostate)?
A: > 10 µM
